Earlier results as cited in patent US7235541B2, “Neurokinin antagonists for use as medicaments” (Astrazeneca AB, priority 2000, dated 2007).
Read-outs that look alike come from different tables or passages of the source. Peptide text beside a SMILES is read from it.

Legend:
[1] = Elevated plus-maze
[2] = Forced swim test (depression model); only at 30 mg/kg bid; Vassout et al, Neuropeptides 1994
[3] = Light-dark box
[4] = Marmoset human intruder; Walsh et al., Psychopharmacology 1995
[5] = Teixeira et al., Eur J Pharmacol 1996
[6] = Stratton et al., Eur. J. Pharmacol. 1993
[7] = Walsh et al., Psychopharmacology 1995

SMILES | Outcome [1, 5] | Outcome [3, 6] | Outcome [4] | Outcome [3, 7] | also measured
Cc1cc(C)cc(C(=O)N2CC[C@H](NCc3ccnc4ccccc34)C[C@H]2Cc2ccccc2)c1 [CGP 49823] | – | – | – | – | Outcome (Social interaction test, Vassout et al, Neuropeptides 1994): anxiolytic; Outcome (Social interaction, File, Pharm Bio B 1997): anxiolytic; Outcome ([1]; Vassout et al, Neuropeptides 1994): inactive; Outcome [2]: antidepressant
CN(Cc1ccccc1)C(=O)[C@H](Cc1ccc2ccccc2c1)NC(=O)[C@@H]1C[C@@H](O)CN1C(=O)c1cn(C)c2ccccc12 [FK888] | anxiolytic | – | – | – | –
C[C@H](NC(=O)CNC(=O)C1CCCCC1)C(=O)N[C@H](Cc1c[nH]c2ccccc12)C(=O)N[C@@H](Cc1ccccc1)C(=O)N(C)C [GR100679] (HELM PEPTIDE1{[O=C(C1CCCCC1)[*:2]].G.A.[dW].F.[CN(C)[*:1]]}$$$$V2.0) | – | anxiolytic | – | – | –
COC1(C[S@@+]([O-])c2ccccc2)CCN(CCc2c[nH]c3ccc(F)cc23)CC1 [GR159897] | – | – | anxiolytic | anxiolytic | –
CC(=O)NC1(c2ccccc2)CCN(CC[C@H](CN(C)C(=O)c2ccccc2)c2ccc(Cl)c(Cl)c2)CC1 [SR48968] | anxiolytic | anxiolytic | anxiolytic | anxiolytic | –
